Literature values, collected in patent US20130347140A1, “High Rebaudioside-A Plant and Methods of Producing the Same and Uses Thereof” (priority 2010, published 2013).

Settings: vs sugar

Row | Structure (SMILES) | sweetness, × of sugar
1 | C=C1C[C@@]23CC[C@H]4[C@@](C)(CCC[C@@]4(C)C(=O)O[C@@H]4O[C@H](CO)[C@@H](O)[C@H](O)[C@H]4O)[C@@H]2CC[C@]1(O[C@@H]1O[C@H](CO)[C@@H](O)[C@H](O[C@@H]2O[C@H](CO)[C@@H](O)[C@H](O)[C@H]2O)[C@H]1O[C@@H]1O[C@H](CO)[C@@H](O)[C@H](O)[C@H]1O)C3 [Rebaudioside A] | 350-450 ×
2 | C=C1C[C@@]23CC[C@H]4[C@@](C)(CCC[C@@]4(C)C(=O)O[C@@H]4O[C@H](CO)[C@@H](O)[C@H](O)[C@H]4O)[C@@H]2CC[C@]1(O[C@@H]1O[C@H](CO)[C@@H](O)[C@H](O)[C@H]1O[C@@H]1O[C@H](CO)[C@@H](O)[C@H](O)[C@H]1O)C3 [Stevioside] | 250-300 ×
